Where two headings read alike, the source gives them in different places.
Legend:
[1] = test system: HDFs (non-cancerous human dermal fibroblasts); test: MTT cytotoxicity assay, HDFs; type: cell-based; conditions: non-cancerous cells, average ±SD of four independent experiments, read-out: IC50 ± STDEV, HDFs
Description: (§1) The parental MCF7 (breast cancer cell line), A549 (non-small cell lung cancer cell line), and human dermal fibroblast (HDF) (human dermal cell line) cells were obtained from the American Type Culture Collection (ATCC, Manassas, VA, United States). MCF7 and A549 cells were cultured in RPMI 1640 medium (EuroClone, Italy) supplemented with 10% (v/v) heat-inactivated fetal bovine serum (FBS) (EuroClone, Italy), 1% penicillin-streptomycin (EuroClone, Italy), and 2 mM L-glutamine.
(§2) The cytotoxic activity of the tested compounds were tested using MTT assay. […] Then, the cell viability was recored and IC50 values were calcualted. ([Mosmann, 1983]; [Nafie et al., 2020c]).

[2] = test system: A549 (non-small cell lung cancer) cells; test: MTT cytotoxicity assay, A549; type: cell-based, human; conditions: read-out: IC50 ± STDEV, A549
Description: as §1, §2

[3] = test system: MCF-7 (breast cancer) cells; test: MTT cytotoxicity assay, MCF-7; type: cell-based, human; conditions: read-out: IC50 ± STDEV, MCF-7
Description: as §1, §2

A549 cells = test: Flow cytometry, Annexin V/PI staining; type: cell-based, human; conditions: A549, IC50 value, 48 h; for cells undergoing late apoptosis: control 0.16%; for cells undergoing early apoptosis: control 0.42%; for total apoptosis / total apoptotic cell death, fold vs control: control 0.61%; for necrosis-mediated cell death / necrosis-mediated cell death, fold increase: control 0.97%
Description: A549 cells were seeded into 6-well culture plates (3-5× 10^5 cells/well) and incubated overnight. […] Next, media supernatants and cells were collected and rinsed with ice-cold PBS. The cells were then suspended in the flow cytometry solutions and cells were stained with Annexin V/PI, and data was acquired using a Cytoflex FACS machine. Data were analyzed using cytExpert software. ([Hisham et al., 2019]; [Khodair et al., 2019]; [Nafie et al., 2020b]).

CDK-2 = CDK-2 (Homo sapiens, UniProt P24941); test: CDK-2 enzyme inhibition; type: biochemical; conditions: Mean ± SD of three independent replicates
EGFR = molecular target: T1, EGFR (Homo sapiens, UniProt P00533); test: EGFR-TK kinase assay (ADP-Glo); type: biochemical; conditions: Mean ± SD of three independent replicates; read-out: EGFR inhibition IC50
T1 construct: purchased Promega V9261
T1 sequence (P00533 25-1210): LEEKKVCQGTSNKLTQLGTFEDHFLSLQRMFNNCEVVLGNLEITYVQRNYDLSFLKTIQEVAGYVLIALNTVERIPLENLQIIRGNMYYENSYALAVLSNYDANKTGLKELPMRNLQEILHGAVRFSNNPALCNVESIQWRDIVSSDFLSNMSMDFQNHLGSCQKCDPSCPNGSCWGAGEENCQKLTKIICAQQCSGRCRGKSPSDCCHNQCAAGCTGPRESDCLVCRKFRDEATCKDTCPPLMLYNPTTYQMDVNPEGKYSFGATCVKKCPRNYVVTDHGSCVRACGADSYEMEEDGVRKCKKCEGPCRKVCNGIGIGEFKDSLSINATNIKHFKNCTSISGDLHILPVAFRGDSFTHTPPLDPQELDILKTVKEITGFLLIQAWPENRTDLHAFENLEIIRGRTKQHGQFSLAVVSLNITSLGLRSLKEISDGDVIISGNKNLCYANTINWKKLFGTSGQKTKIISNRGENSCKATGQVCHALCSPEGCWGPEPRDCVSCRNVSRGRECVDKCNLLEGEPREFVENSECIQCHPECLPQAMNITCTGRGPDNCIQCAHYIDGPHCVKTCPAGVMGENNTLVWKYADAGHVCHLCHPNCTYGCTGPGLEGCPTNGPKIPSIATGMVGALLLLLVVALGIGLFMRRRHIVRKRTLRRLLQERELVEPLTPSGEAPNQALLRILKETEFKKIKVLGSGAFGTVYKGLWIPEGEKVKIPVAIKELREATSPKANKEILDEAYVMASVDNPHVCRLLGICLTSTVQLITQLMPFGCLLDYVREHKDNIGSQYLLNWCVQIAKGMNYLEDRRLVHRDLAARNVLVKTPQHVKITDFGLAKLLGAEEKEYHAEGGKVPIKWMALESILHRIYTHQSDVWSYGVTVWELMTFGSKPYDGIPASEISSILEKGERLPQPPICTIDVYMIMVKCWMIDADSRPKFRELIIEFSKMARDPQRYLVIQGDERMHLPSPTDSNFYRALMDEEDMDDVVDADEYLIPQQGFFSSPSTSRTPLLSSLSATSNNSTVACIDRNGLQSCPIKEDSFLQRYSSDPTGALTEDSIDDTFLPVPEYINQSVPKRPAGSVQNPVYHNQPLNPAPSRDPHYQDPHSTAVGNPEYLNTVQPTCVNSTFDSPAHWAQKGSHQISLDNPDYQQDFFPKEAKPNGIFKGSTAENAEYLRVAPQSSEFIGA
Description: EGFR-TK assay kit (ADP-Glo™ kinase assay, Cat No. V9261, Promega, United States) kinase assay was performed to evaluate the capacity of 3h, 3i, and 3j to inhibit EGFR.

[4] = Homo sapiens, A549, average ±SD of four independent experiments
[5] = Homo sapiens, MCF7, average ±SD of four independent experiments
[6] = average ±SD of four independent experiments

Compound Nc1cc(-c2c[nH]c3ccccc23)nn1-c1nc(Nc2ccc(Cl)cc2)nc(N2CCCCC2)n1 [Compound 3e, 4-(5-Amino-3-(1H-indol-3-yl)-1H-pyrazol-1-yl)-N-(4-chlorophenyl)-6-(piperidin-1-yl)-1,3,5-triazin-2-amine] has a melting point of 295 to 296 °C, an IC50 ([1]; Homo sapiens, Fibroblast) of 11.2 ± 0.69 µM and an IC50 [2, 4] of 9.57 ± 1.26 µM. For the same compound, the IC50 [3, 5] was 15.2 ± 0.74 µM.

Work on “2-(4,6-Di (piperidin-1-yl)-1,3,5-triazin-2-yl)-3-(1H-indol-3-yl)-2,3-dihydro-1H-pyrazole-4-carbonitrile [Compound 5a]” yielded an IC50 [1] greater than 500 µM, an IC50 [2, 6] of 66.1 ± 5.71 µM and an IC50 [3, 6] of 65.2 ± 1.43 µM.

With N#Cc1cnn(-c2nc(Nc3ccccc3)nc(N3CCOCC3)n2)c1-c1c[nH]c2ccccc12 [Compound 5h, 5-(1H-Indol-3-yl)-1-(4-morpholino-6-(phenylamino)-1,3,5-triazin-2-yl)-1H-pyrazole-4-carbonitrile] the melting point was 314 to 316 °C, the IC50 ([1]; Homo sapiens, Fibroblast) was 23.8 ± 3.37 µM and the IC50 [2, 4] was 7.62 ± 0.85 µM.

With N#Cc1cnn(-c2nc(N3CCOCC3)nc(N3CCOCC3)n2)c1-c1c[nH]c2ccccc12 [Compound 5b, 1-(4,6-Dimorpholino-1,3,5-triazin-2-yl)-5-(1H-indol-3-yl)-1H-pyrazole-4 carbonitrile] the melting point was 328 to 330 °C, the IC50 ([1]; Homo sapiens, Fibroblast) was greater than 500 µM and the IC50 [2, 4] was greater than 500 µM. For the same compound, the IC50 [3, 5] was greater than 500 µM.

With COc1ccc(Nc2nc(N3CCOCC3)nc(-n3nc(-c4c[nH]c5ccccc45)cc3N)n2)cc1 [Compound 3k, 4-(5-Amino-3-(1H-indol-3-yl)-1H-pyrazol-1-yl)-N-(4-methoxyphenyl)-6-morpholino-1,3,5-triazin-2-amine] the IC50 ([1]; Homo sapiens, Fibroblast) was 8.9 ± 1.07 µM, the IC50 [2, 4] was 3.64 ± 1.26 µM and the IC50 [3, 5] was 4.11 ± 0.5 µM.

COc1ccc(Nc2nc(N3CCCCC3)nc(-n3ncc(C#N)c3-c3c[nH]c4ccccc34)n2)cc1 [Compound 5g, 5-(1H-Indol-3-yl)-1-(4-((4-methoxyphenyl)amino)-6-(piperidin-1-yl)-1,3,5-triazin-2-yl)-1H-pyrazole-4-carbonitrile] showed a melting point of 273 to 275 °C, an IC50 ([1]; Homo sapiens, Fibroblast) greater than 500 µM and an IC50 [2, 4] greater than 500 µM. The IC50 [3, 5] was greater than 500 µM.

In the case of Nc1cc(-c2c[nH]c3ccccc23)nn1-c1nc(N2CCCCC2)nc(N2CCCCC2)n1 [Compound 3a, 1-(4,6-Di (piperidin-1-yl)-1,3,5-triazin-2-yl)-3-(1H-indol-3-yl)-1H-pyrazol-5-amine], the melting point is reported as 288 to 290 °C, the IC50 ([1]; Homo sapiens, Fibroblast) is reported as greater than 500 µM and the IC50 [2, 4] is reported as greater than 500 µM. The IC50 [3, 5] was greater than 500 µM.

In the case of COc1ccc(Nc2nc(N3CCOCC3)nc(-n3ncc(C#N)c3-c3c[nH]c4ccccc34)n2)cc1 [Compound 5k, 5-(1H-Indol-3-yl)-1-(4-((4-methoxyphenyl)amino)-6-morpholino-1,3,5-triazin-2-yl)-1H-pyrazole-4-carbonitrile], the melting point is reported as 293 to 295 °C, the IC50 ([1]; Homo sapiens, Fibroblast) is reported as greater than 500 µM and the IC50 [2, 4] is reported as greater than 500 µM. It also gave an IC50 [3, 5] greater than 500 µM.

Compound N#Cc1cnn(-c2nc(Nc3ccc(Br)cc3)nc(N3CCOCC3)n2)c1-c1c[nH]c2ccccc12 [Compound 5j, 1-(4-((4-Bromophenyl)amino)-6-morpholino-1,3,5-triazin-2-yl)-5-(1H-indol-3-yl)-1H-pyrazole-4-carbonitrile] has an IC50 ([1]; Homo sapiens, Fibroblast) greater than 500 µM, an IC50 [2, 4] of 23.2 ± 2.27 µM and an IC50 [3, 5] of 51.1 ± 10.3 µM.

Compound N#Cc1cnn(-c2nc(Nc3ccc(Br)cc3)nc(N3CCCCC3)n2)c1-c1c[nH]c2ccccc12 [Compound 5f, 1-(4-((4-Bromophenyl)amino)-6-(piperidin-1-yl)-1,3,5-triazin-2-yl)-5-(1H-indol-3-yl)-1H-pyrazole-4-carbonitrile] has an IC50 ([1]; Homo sapiens, Fibroblast) greater than 500 µM, an IC50 [2, 4] greater than 500 µM and an IC50 [3, 5] greater than 500 µM.

N#Cc1cnn(-c2nc(Nc3ccc(Cl)cc3)nc(N3CCOCC3)n2)c1-c1c[nH]c2ccccc12 [Compound 5i, 1-(4-((4-Chlorophenyl)amino)-6-morpholino-1,3,5-triazin-2-yl)-5-(1H-indol-3-yl)-1H-pyrazole-4-carbonitrile] gave an IC50 ([1]; Homo sapiens, Fibroblast) greater than 500 µM, an IC50 [2, 4] of 44.5 ± 19.2 µM and an IC50 [3, 5] of 59.8 ± 0.81 µM.

Nc1cc(-c2c[nH]c3ccccc23)nn1-c1nc(Nc2ccccc2)nc(N2CCCCC2)n1 [Compound 3d, 4-(5-Amino-3-(1H-indol-3-yl)-1H-pyrazol-1-yl)-N-phenyl-6-(piperidin-1-yl)-1,3,5-triazin-2-amine] showed an IC50 ([1]; Homo sapiens, Fibroblast) of 22.9 ± 5.2 µM, an IC50 [2, 4] of 10.6 ± 2.88 µM and an IC50 [3, 5] of 11.7 ± 4.43 µM.

With Nc1cc(-c2c[nH]c3ccccc23)nn1-c1nc(Nc2ccccc2)nc(N2CCOCC2)n1 [Compound 3h, 4-(5-Amino-3-(1H-indol-3-yl)-1H-pyrazol-1-yl)-6-morpholino-N-phenyl-1,3,5-triazin-2-amine] the IC50 ([1]; Homo sapiens, Fibroblast) was 14 ± 2.67 µM, the “cells undergoing late apoptosis” value (A549 cells) was 12% and the “cells undergoing early apoptosis” value (A549 cells) was 19.4%. For the same compound, the total apoptosis (A549 cells) was 31.4%, the “total apoptotic cell death, fold vs control” value (A549 cells) was 51.4 fold and the necrosis-mediated cell death (A549 cells) was 4.98%. For the same compound, the “necrosis-mediated cell death, fold increase” value (A549 cells) was 5.1 fold, the IC50 (CDK-2) was 0.112 ± 0.00301 µM and the IC50 [2, 4] was 2.65 ± 0.22 µM. The IC50 [3, 5] was 2.66 ± 0.26 µM and the IC50 (EGFR) was 0.0642 ± 0.00312 µM.

For Nc1cc(-c2c[nH]c3ccccc23)nn1-c1nc(Nc2ccc(Br)cc2)nc(N2CCOCC2)n1 [Compound 3j, 4-(5-Amino-3-(1H-indol-3-yl)-1H-pyrazol-1-yl)-N-(4-bromophenyl)-6-morpholino-1,3,5-triazin-2-amine], the IC50 ([1]; Homo sapiens, Fibroblast) was 3.96 ± 0.73 µM, the “cells undergoing late apoptosis” value (A549 cells) was 8.5% and the “cells undergoing early apoptosis” value (A549 cells) was 22.6%. For the same compound, the total apoptosis (A549 cells) was 31.1%, the “total apoptotic cell death, fold vs control” value (A549 cells) was 50.9 fold and the necrosis-mediated cell death (A549 cells) was 5.42%. The “necrosis-mediated cell death, fold increase” value (A549 cells) was 5.58 fold, the IC50 (CDK-2) was 0.136 ± 0.00314 µM and the IC50 [2, 4] was 2.32 ± 0.21 µM. The IC50 [3, 5] was 3.3 ± 0.32 µM and the IC50 (EGFR) was 0.0684 ± 0.00298 µM.

For Nc1cc(-c2c[nH]c3ccccc23)nn1-c1nc(Nc2ccc(Br)cc2)nc(N2CCCCC2)n1 [Compound 3f, 4-(5-Amino-3-(1H-indol-3-yl)-1H-pyrazol-1-yl)-N-(4-bromophenyl)-6-(piperidin-1-yl)-1,3,5-triazin-2-amine], the melting point was 271 to 274 °C, the IC50 ([1]; Homo sapiens, Fibroblast) was 6.8 ± 1.02 µM and the IC50 [2, 4] was 14.8 ± 0.83 µM. The IC50 [3, 5] was 13.2 ± 0.55 µM.

In the case of N#Cc1cnn(-c2nc(N3CCCCC3)nc(N3CCOCC3)n2)c1-c1c[nH]c2ccccc12 [Compound 5c, 5-(1H-Indol-3-yl)-1-(4-morpholino-6-(piperidin-1-yl)-1,3,5-triazin-2-yl)-1H-pyrazol4-carbonitrile], the IC50 ([1]; Homo sapiens, Fibroblast) is reported as 537 ± 71.6 µM, the IC50 [2, 4] is reported as 223 ± 88.3 µM and the IC50 [3, 5] is reported as 152 ± 50.1 µM.

COc1cccc2c1C(=O)c1c(O)c3c(c(O)c1C2=O)C[C@@](O)(C(=O)CO)C[C@@H]3O[C@H]1C[C@H](N)[C@H](O)[C@H](C)O1 [Doxorubicin, reference compound] gave an IC50 ([1]; Homo sapiens, Fibroblast) of 0.42 ± 0.27 µM, an IC50 [2, 4] of 0.28 ± 0.11 µM and an IC50 [3, 5] of 0.06 ± 0.02 µM.

With N#Cc1cnn(-c2nc(Nc3ccc(Cl)cc3)nc(N3CCCCC3)n2)c1-c1c[nH]c2ccccc12 [Compound 5e, 1-(4-((4-Chlorophenyl)amino)-6-(piperidin-1-yl)-1,3,5-triazin-2-yl)-5-(1H-indol-3-yl)-1H-pyrazole-4-carbonitrile] the IC50 ([1]; Homo sapiens, Fibroblast) was greater than 500 µM, the IC50 [2, 4] was greater than 500 µM and the IC50 [3, 5] was greater than 500 µM.

For COc1ccc(Nc2nc(N3CCCCC3)nc(-n3nc(-c4c[nH]c5ccccc45)cc3N)n2)cc1 [Compound 3g, 4-(5-Amino-3-(1H-indol-3-yl)-1H-pyrazol-1-yl)-N-(4-methoxyphenyl)-6-(piperidin-1-yl)-1,3,5-triazin-2-amine], the IC50 ([1]; Homo sapiens, Fibroblast) was 4.36 ± 0.83 µM, the IC50 [2, 4] was 6.23 ± 0.48 µM and the IC50 [3, 5] was 7.68 ± 0.21 µM.

Work on N#Cc1cnn(-c2nc(Nc3ccccc3)nc(N3CCCCC3)n2)c1-c1c[nH]c2ccccc12 [Compound 5d, 5-(1H-Indol-3-yl)-1-(4-(phenylamino)-6-(piperidin-1-yl)-1,3,5-triazin-2-yl)-1H-pyrazole-4-carbonitrile] yielded a melting point of 298 to 299 °C, an IC50 ([1]; Homo sapiens, Fibroblast) of 115 ± 14.8 µM and an IC50 [2, 4] of 10.3 ± 2.64 µM. The IC50 [3, 5] was 16.8 ± 0.78 µM.

With Nc1cc(-c2c[nH]c3ccccc23)nn1-c1nc(N2CCOCC2)nc(N2CCOCC2)n1 [Compound 3b, 1-(4,6-Dimorpholino-1,3,5-triazin-2-yl)-3-(1H-indol-3-yl)-1H-pyrazol-5-amine] the melting point was 188 to 189 °C, the IC50 ([1]; Homo sapiens, Fibroblast) was 4.47 ± 1.43 µM and the IC50 [2, 4] was 3.08 ± 1.27 µM. It also gave an IC50 [3, 5] of 11.7 ± 1.77 µM.

For Nc1cc(-c2c[nH]c3ccccc23)nn1-c1nc(N2CCCCC2)nc(N2CCOCC2)n1 [Compound 3c, 3-(1H-Indol-3-yl)-1-(4-morpholino-6-(piperidin-1-yl)-1,3,5-triazin-2-yl)-1H-pyrazol-5-amine], the melting point was 178 to 179 °C, the IC50 ([1]; Homo sapiens, Fibroblast) was 6.82 ± 1.34 µM and the IC50 [2, 4] was 4.82 ± 0.29 µM. The IC50 [3, 5] was 12.6 ± 1.03 µM.

From article PMC9732672, “Pyrazolyl-s-triazine with indole motif as a novel of epidermal growth factor receptor/cyclin-dependent kinase 2 dual inhibitors” (Frontiers in Chemistry, 2022)
